Results on 14 molecules are retold here after the kinase profiling compilation of Christmann-Franck et al. (2016).

Test in all cases: KINOMEscan competition binding
Common to all, as to conditions: compound 10.0 µM

Experiment [1] concerns BMX (human), P51813 [V600E].
The test system of experiment [2] is EGFR (human), P00533 [A750P; 747-749 del].
Experiment [3] deals with PIK3CA (human), P42336 [E542K].
Experiment [4] concerns MET (human), P08581 [M1250T].
In experiment [5] the test system is EGFR (human), P00533 [L858R].
For experiment [6], the system named is PIK3CA (human), P42336 [H1047L].
Experiment [7] concerns PIK3CA (human), P42336 [M1043I].
The subject of experiment [8] is ABL1 (human), P00519 [F317I].
For experiment [9], the system named is ABL1 (human), P00519 [F317L].
The test system of experiment [10] is RET (human), P07949 [V804L].
In experiment [11] the test system is FGFR3 (human), P22607 [G697C].
Experiment [12] has as its system FLT3 (human), P36888 [D835Y].
Experiment [13] deals with EGFR (human), P00533 [G719C].
The subject of experiment [14] is LRRK2 (human), Q5S007 [G2019S].

Chain of RET (human), P07949 [V804L] (P07949 whole entry V804L, looked up): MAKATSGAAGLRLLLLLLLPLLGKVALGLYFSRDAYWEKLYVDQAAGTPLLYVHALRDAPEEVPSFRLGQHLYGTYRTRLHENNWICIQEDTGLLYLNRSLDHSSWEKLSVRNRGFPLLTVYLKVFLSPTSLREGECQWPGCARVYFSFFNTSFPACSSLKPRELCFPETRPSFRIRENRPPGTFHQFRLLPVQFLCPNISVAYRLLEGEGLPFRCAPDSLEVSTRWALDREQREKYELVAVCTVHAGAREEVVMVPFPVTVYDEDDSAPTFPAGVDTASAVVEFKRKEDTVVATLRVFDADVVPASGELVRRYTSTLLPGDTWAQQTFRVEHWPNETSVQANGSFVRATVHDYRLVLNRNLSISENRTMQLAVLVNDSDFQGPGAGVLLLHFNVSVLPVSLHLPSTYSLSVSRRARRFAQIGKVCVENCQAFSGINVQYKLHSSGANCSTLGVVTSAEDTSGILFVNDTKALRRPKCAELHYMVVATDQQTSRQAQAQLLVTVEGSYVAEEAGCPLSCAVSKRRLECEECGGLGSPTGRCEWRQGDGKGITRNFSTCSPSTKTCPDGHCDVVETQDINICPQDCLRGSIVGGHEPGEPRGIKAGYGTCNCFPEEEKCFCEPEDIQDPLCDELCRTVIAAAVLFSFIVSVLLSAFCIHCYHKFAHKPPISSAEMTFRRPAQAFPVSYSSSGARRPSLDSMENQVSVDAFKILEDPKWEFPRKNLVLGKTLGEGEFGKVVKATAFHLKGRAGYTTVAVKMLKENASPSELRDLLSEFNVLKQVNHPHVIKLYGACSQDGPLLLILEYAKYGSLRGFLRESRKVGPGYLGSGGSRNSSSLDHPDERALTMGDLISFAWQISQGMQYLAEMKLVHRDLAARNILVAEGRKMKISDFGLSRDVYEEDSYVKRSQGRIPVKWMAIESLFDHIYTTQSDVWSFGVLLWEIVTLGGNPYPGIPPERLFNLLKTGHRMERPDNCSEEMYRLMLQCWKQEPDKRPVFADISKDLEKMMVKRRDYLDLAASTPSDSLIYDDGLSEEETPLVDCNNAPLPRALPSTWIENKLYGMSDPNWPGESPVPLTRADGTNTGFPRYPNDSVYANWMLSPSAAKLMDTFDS
Chain of PIK3CA (human), P42336 [M1043I] (P42336 whole entry M1043I, looked up): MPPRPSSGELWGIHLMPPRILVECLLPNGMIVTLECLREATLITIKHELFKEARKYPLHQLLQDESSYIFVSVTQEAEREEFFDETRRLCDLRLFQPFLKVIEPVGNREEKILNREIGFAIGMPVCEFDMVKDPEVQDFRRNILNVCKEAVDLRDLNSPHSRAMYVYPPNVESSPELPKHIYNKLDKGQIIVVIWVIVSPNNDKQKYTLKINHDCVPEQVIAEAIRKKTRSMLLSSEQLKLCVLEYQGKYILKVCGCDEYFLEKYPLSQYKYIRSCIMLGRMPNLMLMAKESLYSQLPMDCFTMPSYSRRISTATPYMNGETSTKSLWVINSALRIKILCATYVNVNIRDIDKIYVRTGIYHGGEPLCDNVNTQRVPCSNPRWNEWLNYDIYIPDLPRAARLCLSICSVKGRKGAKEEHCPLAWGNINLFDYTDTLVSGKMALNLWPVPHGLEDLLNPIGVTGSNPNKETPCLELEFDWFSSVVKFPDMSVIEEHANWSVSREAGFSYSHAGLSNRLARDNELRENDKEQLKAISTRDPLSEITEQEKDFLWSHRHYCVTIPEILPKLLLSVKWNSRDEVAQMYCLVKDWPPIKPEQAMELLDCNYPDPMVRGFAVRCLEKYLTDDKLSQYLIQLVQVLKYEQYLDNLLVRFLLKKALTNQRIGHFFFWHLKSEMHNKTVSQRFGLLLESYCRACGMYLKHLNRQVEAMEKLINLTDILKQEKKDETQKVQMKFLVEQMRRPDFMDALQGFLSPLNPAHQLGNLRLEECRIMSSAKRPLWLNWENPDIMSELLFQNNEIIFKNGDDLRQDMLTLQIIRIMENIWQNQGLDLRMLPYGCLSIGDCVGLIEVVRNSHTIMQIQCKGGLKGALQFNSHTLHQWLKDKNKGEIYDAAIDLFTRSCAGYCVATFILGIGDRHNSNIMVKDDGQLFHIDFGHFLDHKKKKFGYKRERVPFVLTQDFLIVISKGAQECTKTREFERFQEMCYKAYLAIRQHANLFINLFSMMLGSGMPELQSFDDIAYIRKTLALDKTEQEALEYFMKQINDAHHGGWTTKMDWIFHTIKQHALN
Chain of BMX (human), P51813 [V600E] (P51813 whole entry, looked up, stated change not applied): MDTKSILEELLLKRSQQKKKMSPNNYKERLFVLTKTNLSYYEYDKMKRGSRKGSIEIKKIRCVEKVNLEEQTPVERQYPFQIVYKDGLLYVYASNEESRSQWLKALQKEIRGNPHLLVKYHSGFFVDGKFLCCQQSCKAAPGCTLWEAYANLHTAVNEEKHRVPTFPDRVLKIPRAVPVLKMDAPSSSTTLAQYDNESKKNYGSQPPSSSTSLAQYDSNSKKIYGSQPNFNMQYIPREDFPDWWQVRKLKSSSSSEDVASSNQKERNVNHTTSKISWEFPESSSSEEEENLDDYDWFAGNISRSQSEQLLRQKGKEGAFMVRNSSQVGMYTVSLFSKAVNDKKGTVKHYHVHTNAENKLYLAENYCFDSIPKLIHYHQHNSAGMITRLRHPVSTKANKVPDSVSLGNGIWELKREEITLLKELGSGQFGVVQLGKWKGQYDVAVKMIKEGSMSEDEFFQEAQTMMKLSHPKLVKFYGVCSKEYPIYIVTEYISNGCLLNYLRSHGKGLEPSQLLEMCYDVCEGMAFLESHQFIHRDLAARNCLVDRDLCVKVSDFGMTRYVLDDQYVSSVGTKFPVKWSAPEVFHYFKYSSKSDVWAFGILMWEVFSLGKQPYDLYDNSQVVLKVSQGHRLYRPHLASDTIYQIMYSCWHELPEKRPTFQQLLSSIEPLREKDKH
Chain of ABL1 (human), P00519 [F317I] (P00519 whole entry F317I, looked up): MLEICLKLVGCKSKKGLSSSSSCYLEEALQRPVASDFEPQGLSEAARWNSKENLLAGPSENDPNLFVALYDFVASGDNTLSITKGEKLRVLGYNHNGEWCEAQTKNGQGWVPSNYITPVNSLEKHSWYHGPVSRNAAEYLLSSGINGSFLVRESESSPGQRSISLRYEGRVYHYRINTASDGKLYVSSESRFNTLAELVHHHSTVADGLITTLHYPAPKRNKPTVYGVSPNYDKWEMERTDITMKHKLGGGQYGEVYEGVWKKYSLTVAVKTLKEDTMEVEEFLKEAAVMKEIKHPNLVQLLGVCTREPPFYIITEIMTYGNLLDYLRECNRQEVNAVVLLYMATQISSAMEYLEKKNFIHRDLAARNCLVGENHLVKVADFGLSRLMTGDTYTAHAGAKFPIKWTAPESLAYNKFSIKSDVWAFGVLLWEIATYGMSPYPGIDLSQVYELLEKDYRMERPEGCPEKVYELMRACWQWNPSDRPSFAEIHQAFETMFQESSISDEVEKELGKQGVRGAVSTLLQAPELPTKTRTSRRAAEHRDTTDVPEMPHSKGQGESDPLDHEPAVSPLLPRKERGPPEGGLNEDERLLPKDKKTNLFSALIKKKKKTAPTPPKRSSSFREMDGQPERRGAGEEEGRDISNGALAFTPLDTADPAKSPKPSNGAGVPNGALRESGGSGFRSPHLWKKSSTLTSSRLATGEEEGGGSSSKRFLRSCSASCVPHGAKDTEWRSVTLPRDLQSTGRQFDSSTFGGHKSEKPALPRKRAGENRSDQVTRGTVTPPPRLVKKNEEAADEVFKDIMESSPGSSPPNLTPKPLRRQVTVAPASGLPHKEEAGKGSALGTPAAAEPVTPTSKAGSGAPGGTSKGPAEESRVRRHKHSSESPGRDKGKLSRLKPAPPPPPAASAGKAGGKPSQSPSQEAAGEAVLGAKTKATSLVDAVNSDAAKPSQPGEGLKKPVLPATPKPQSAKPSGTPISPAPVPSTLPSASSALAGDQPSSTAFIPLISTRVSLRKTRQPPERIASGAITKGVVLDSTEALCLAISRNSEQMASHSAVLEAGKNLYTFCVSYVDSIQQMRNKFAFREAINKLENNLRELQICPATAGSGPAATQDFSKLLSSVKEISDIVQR
Chain of ABL1 (human), P00519 [F317L] (P00519 whole entry F317L, looked up): as the sequence (P00519 whole entry F317I, looked up) above, with I317L counted along it
Chain of PIK3CA (human), P42336 [H1047L] (P42336 whole entry H1047L, looked up): as the sequence (P42336 whole entry M1043I, looked up) above, with I1043M, H1047L counted along it
Chain of FGFR3 (human), P22607 [G697C] (P22607 whole entry G697C, looked up): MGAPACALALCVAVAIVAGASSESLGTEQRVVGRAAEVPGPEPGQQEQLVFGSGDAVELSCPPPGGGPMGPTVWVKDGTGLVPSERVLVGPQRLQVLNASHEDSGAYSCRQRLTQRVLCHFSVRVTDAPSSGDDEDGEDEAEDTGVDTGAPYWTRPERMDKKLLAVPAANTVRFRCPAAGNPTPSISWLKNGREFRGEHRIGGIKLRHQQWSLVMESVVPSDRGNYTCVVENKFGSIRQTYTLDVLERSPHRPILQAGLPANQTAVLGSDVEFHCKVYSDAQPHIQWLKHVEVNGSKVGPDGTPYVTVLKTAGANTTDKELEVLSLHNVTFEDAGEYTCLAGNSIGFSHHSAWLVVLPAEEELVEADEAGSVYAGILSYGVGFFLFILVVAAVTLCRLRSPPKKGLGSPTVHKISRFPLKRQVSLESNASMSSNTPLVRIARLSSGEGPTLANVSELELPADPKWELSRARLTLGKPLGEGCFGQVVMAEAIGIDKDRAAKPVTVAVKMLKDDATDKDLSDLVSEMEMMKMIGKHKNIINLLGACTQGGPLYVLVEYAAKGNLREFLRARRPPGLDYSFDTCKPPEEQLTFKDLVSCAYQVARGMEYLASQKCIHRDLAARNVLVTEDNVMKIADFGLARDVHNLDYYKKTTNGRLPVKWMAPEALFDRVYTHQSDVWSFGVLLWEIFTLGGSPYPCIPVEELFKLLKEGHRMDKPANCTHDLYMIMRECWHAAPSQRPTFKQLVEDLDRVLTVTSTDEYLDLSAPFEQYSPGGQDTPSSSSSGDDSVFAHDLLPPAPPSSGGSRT
Chain of PIK3CA (human), P42336 [E542K] (P42336 whole entry E542K, looked up): as the sequence (P42336 whole entry M1043I, looked up) above, with E542K, I1043M counted along it

For `COc1cc(C(=O)NC2CCN(C)CC2)ccc1Nc1ncc2c(n1)N(C1CCCC1)CCC(=O)N2C(C)C`, the kinase still bound, per cent of control in experiment [1], in [2], in [3], in experiment [4], in [5] and in experiment [6] was 100% throughout. The kinase still bound, per cent of control in [7] is 100%; in experiment [8], 100%; in [9], 100%; in experiment [10], 0%; in experiment [11], 100%; in experiment [12] it was 100%. Also, the kinase still bound, per cent of control in [13] was 100%.

Regarding `Cc1ccc(C(=O)Nc2cccc(C(F)(F)F)c2)cc1Nc1cncc(C(N)=O)c1`, the kinase still bound, per cent of control in experiment [1] was determined as 0.15%; in experiment [2], 100%; in [5] it was 100%; in experiment [8], 13%; in [9], 22%; in experiment [10], 100%. Also, the kinase still bound, per cent of control in experiment [11], in experiment [12] and in experiment [13] was 100% in each case.

Consider `Cc1n[nH]c2ccc(-c3cncc(OC[C@@H](N)Cc4c[nH]c5ccccc45)c3)cc12`, for which the kinase still bound, per cent of control in experiment [1] is 100%; in experiment [8] it was 100%; in experiment [9] it was 100%; in experiment [10], 12%; in experiment [11], 100%; in experiment [12], 0.2%.

As for `COc1cc(N2CCN(C)CC2)ccc1Nc1ncc2c(n1)N(C)c1ccccc1C(=O)N2C`, the kinase still bound, per cent of control in experiment [1], in experiment [2], in experiment [3], in experiment [4], in [5] and in [6] was 100% throughout. The kinase still bound, per cent of control in experiment [7] turned out to be 100%; in experiment [8], 5%; in experiment [9] it was 17%; in experiment [10] it was 100%; in [11], 100%; in experiment [12], 100%. The kinase still bound, per cent of control in experiment [13] came out at 100%.

On to `C=CC(=O)Nc1cccc(Oc2nc(Nc3ccc(N4CCN(C)CC4)cc3OC)ncc2Cl)c1`, for which the kinase still bound, per cent of control in [1] came to 100%; in [2], 0.05%; in [5] it was 0.1%; in experiment [8], 100%; in [9], 100%; in experiment [10] it was 100%. In addition, the kinase still bound, per cent of control in experiment [11] was found to be 100%; in experiment [12], 0.8%; in [13], 0.35%.

Take `C=CC(=O)Nc1ccc(CN(C(=O)Nc2c(Cl)c(OC)cc(OC)c2Cl)c2cc(Nc3ccc(N4CCN(C)CC4)cc3)ncn2)cc1`: the kinase still bound, per cent of control was 100% in experiment [1]; 0.55% in experiment [2]; 0.2% in experiment [5]; 100% in experiment [8]; 100% in experiment [9]; 100% in [10]. Besides, the kinase still bound, per cent of control in experiment [11] amounted to 1.4%; in [12] it was 100%; in experiment [13], 0.1%.

For `CS(=O)(=O)N1CCN(Cc2cc3nc(-c4cccc5[nH]ncc45)nc(N4CCOCC4)c3s2)CC1`, the kinase still bound, per cent of control in experiment [1] is 100%; in experiment [2], 100%; in experiment [3] it was 0.45%; in experiment [4], 100%; in experiment [5], 100%; in experiment [6], 9.8%. The kinase still bound, per cent of control stood at 19% in [7]; 100% in experiment [8]; 100% in experiment [9]; 100% in [10]; 100% in experiment [11]; 100% in experiment [12]. In [13], this molecule showed a kinase still bound, per cent of control of 100%.

In the case of `CNC(=O)c1ccc(Nc2cc(Nc3ccccc3S(=O)(=O)C(C)C)c3cc[nH]c3n2)nc1`, the kinase still bound, per cent of control was 100% in experiment [1]; 100% in [2]; 100% in [5]; 30% in experiment [8]; 28% in [9]; 0.2% in [10]. Moreover, the kinase still bound, per cent of control in [11] is 20%; in experiment [12], 0.1%; in experiment [13], 100%.

Consider `OCCCNc1cc(-c2ccnc(Nc3cccc(Cl)c3)n2)ccn1`, for which the kinase still bound, per cent of control in experiment [1], in experiment [2], in [3], in [4], in experiment [5] and in experiment [6] was 100% throughout. Besides, the kinase still bound, per cent of control was found to be 100% in experiment [7]; 100% in experiment [8]; 100% in experiment [9]; 100% in [10]; 100% in experiment [11]; 19% in [12]. Also, the kinase still bound, per cent of control in [13] is 100%.

For `Cn1c(=O)n(-c2ccc(C(C)(C)C#N)cc2)c2c3cc(-c4cnc5ccccc5c4)ccc3ncc21`, the kinase still bound, per cent of control in experiment [1] worked out at 100%; in [2], 100%; in experiment [3], 2.8%; in experiment [5], 100%; in experiment [6] it was 4.8%; in experiment [8], 100%. In addition, the kinase still bound, per cent of control was 100% in experiment [9]; 100% in [10]; 100% in experiment [11]; 12% in experiment [12]; 100% in experiment [13].

On to `COc1cc(C(=O)NC2CCN(C)CC2)ccc1Nc1ncc2c(n1)N(C1CCCC1)C(C)CC(=O)N2C` (stereo not given), for which the kinase still bound, per cent of control in [1], in experiment [2], in [5], in experiment [8], in experiment [9] and in [10] was 100% in each case. In addition, the kinase still bound, per cent of control in [11], in experiment [12] and in experiment [13] was 100% throughout.

As for `CCC(=O)N1CCN(c2ccc(-n3c(=O)ccc4cnc5ccc(-c6cnc7ccccc7c6)cc5c43)cc2C(F)(F)F)CC1`, the kinase still bound, per cent of control was found to be 88% in [1]; 100% in [2]; 1% in [3]; 79% in experiment [4]; 100% in experiment [5]; 2.6% in experiment [6]. Besides, the kinase still bound, per cent of control in [7] is 8.6%; in experiment [14], 99%; in [8] it was 100%; in experiment [9], 100%; in experiment [10], 66%; in experiment [12], 16%.

Take `CCN(CC)CCCCNc1ncc2c(n1)N(C)C(=O)N(c1c(Cl)c(OC)cc(OC)c1Cl)C2`: the kinase still bound, per cent of control in experiment [1], in experiment [2], in [3], in experiment [4], in experiment [5] and in experiment [6] was 100% throughout. The kinase still bound, per cent of control turned out to be 100% in experiment [7]; 100% in [8]; 100% in [9]; 100% in [10]; 1.3% in experiment [11]; 100% in experiment [12]. The molecule also displayed a kinase still bound, per cent of control in [13] of 100%.

Regarding `CC[C@@H]1C(=O)N(C)c2cnc(Nc3ccc(C(=O)NC4CCN(C)CC4)cc3OC)nc2N1C1CCCC1`, the kinase still bound, per cent of control in [1], in experiment [8], in experiment [9], in experiment [10], in experiment [11] and in [12] was 100% throughout.
